Experimental data: the NIST ThermoML archive (doi:10.1016/j.tca.2012.01.013)

Key:
[1] = xn = mol fraction of the nth substance listed; conditions: 101 kPa, Liquid, Vibrating tube method
[2] = refractive index (Na D-line) (dimensionless); xn = mol fraction of the nth substance listed; conditions: 101 kPa, Liquid, Standard Abbe refractometry

COC(=O)c1ccccc1C(=O)OC [dimethyl 1,2-benzenedicarboxylate] + CCC(C)O
Conditions	mass density, [1] [kg/m3]	refractive index, [2]
288.15 K, x1 = 0.1002	874.348	1.41917
288.15 K, x1 = 0.2014	929.895	1.43651
288.15 K, x1 = 0.3002	977.298	1.45122
288.15 K, x1 = 0.4001	1019.6	1.46424
288.15 K, x1 = 0.5002	1057.27	1.47591
288.15 K, x1 = 0.5991	1090.58	1.48597
288.15 K, x1 = 0.6993	1120.97	1.49516
288.15 K, x1 = 0.7996	1148.47	1.50345
288.15 K, x1 = 0.9015	1173.86	1.51115
288.15 K, x1 = 1	1196.26	1.51779
293.15 K, x1 = 0.1002	870.052	1.41698
293.15 K, x1 = 0.2014	925.438	1.43429
293.15 K, x1 = 0.3002	972.737	1.44898
293.15 K, x1 = 0.4001	1014.97	1.46209
293.15 K, x1 = 0.5002	1052.6	1.47367
293.15 K, x1 = 0.5991	1085.88	1.48373
293.15 K, x1 = 0.6993	1116.26	1.49296
293.15 K, x1 = 0.7996	1143.78	1.50126
293.15 K, x1 = 0.9015	1169.18	1.50899
293.15 K, x1 = 1	1191.59	1.51565
298.15 K, x1 = 0.1002	865.694	1.41476
298.15 K, x1 = 0.2014	920.934	1.43205
298.15 K, x1 = 0.3002	968.144	1.44672
298.15 K, x1 = 0.4001	1010.32	1.45982
298.15 K, x1 = 0.5002	1047.9	1.47143
298.15 K, x1 = 0.5991	1081.18	1.48158
298.15 K, x1 = 0.6993	1111.56	1.49076
298.15 K, x1 = 0.7996	1139.08	1.49911
298.15 K, x1 = 0.9015	1164.51	1.50685
298.15 K, x1 = 1	1186.93	1.51354
303.15 K, x1 = 0.1002	861.267	1.41252
303.15 K, x1 = 0.2014	916.383	1.42979
303.15 K, x1 = 0.3002	963.512	1.44444
303.15 K, x1 = 0.4001	1005.63	1.45755
303.15 K, x1 = 0.5002	1043.19	1.46921
303.15 K, x1 = 0.5991	1076.45	1.47934
303.15 K, x1 = 0.6993	1106.84	1.48856
303.15 K, x1 = 0.7996	1134.39	1.49692
303.15 K, x1 = 0.9015	1159.83	1.5047
303.15 K, x1 = 1	1182.28	1.51146
308.15 K, x1 = 0.1002	856.794	1.4102
308.15 K, x1 = 0.2014	911.783	1.42751
308.15 K, x1 = 0.3002	958.844	1.44214
308.15 K, x1 = 0.4001	1000.92	1.45527
308.15 K, x1 = 0.5002	1038.47	1.46689
308.15 K, x1 = 0.5991	1071.73	1.47701
308.15 K, x1 = 0.6993	1102.13	1.48633
308.15 K, x1 = 0.7996	1129.69	1.49475
308.15 K, x1 = 0.9015	1155.16	1.50256
308.15 K, x1 = 1	1177.62	1.50943
313.15 K, x1 = 0.1002	852.235	1.40779
313.15 K, x1 = 0.2014	907.129	1.42515
313.15 K, x1 = 0.3002	954.133	1.43975
313.15 K, x1 = 0.4001	996.185	1.45295
313.15 K, x1 = 0.5002	1033.72	1.46458
313.15 K, x1 = 0.5991	1066.99	1.47484
313.15 K, x1 = 0.6993	1097.4	1.48415
313.15 K, x1 = 0.7996	1124.99	1.49263
313.15 K, x1 = 0.9015	1150.49	1.50047
313.15 K, x1 = 1	1172.97	1.50736
318.15 K, x1 = 0.1002	847.597	1.40549
318.15 K, x1 = 0.2014	902.417	1.42284
318.15 K, x1 = 0.3002	949.381	1.43749
318.15 K, x1 = 0.4001	991.415	1.45068
318.15 K, x1 = 0.5002	1028.95	1.46236
318.15 K, x1 = 0.5991	1062.23	1.47262
318.15 K, x1 = 0.6993	1092.67	1.48194
318.15 K, x1 = 0.7996	1120.3	1.49047
318.15 K, x1 = 0.9015	1145.82	1.49835
318.15 K, x1 = 1	1168.32	1.50524
323.15 K, x1 = 0.1002	842.887	1.40309
323.15 K, x1 = 0.2014	897.649	1.42026
323.15 K, x1 = 0.3002	944.587	1.4351
323.15 K, x1 = 0.4001	986.618	1.4483
323.15 K, x1 = 0.5002	1024.16	1.46001
323.15 K, x1 = 0.5991	1057.47	1.47032
323.15 K, x1 = 0.6993	1087.94	1.47972
323.15 K, x1 = 0.7996	1115.59	1.48828
323.15 K, x1 = 0.9015	1141.14	1.49621
323.15 K, x1 = 1	1163.67	1.5032
